Here are results for two compounds from patent US20240374626A1, “METHODS OF ENHANCING MILK PRODUCTION IN LACTATING MAMMALIAN SUBJECTS” (priority 2023, published 2024).

The subject of the test is Csn2. The experiment in a line: Contralateral intraductal injection: Csn2 expression in MGs by RT-qPCR. The format is in vivo, mouse. As to the method: Nulliparous analysis was performed using adult (10-12-week-old) female mice. For timed pregnancies and lactation analysis, CD-1 pregnant adult females were obtained from Charles Rivers. Embryos were examined at the time of mammary gland harvesting to confirm pregnancy state. […] Plugged mice were considered to be PD0.5 on the day of the observed plug. All females used in this study were age matched.
Mice were anesthetized with isoflurane (VetOne, 501017) Prior to intraductal injections, hair was removed from around the nipples using Nair hair remover. Injections into the duct of the nipple were performed with 33 G needles (Hamilton, 7803-05) and a volume of 40 μl per gland. Right inguinal, abdominal and thoracic glands were injected with doxorubicin (1.5 μg per gland, Cayman Chemical, 15007), nucleosides (40 μl per gland, Millipore-Sigma, ES-008-D) or Mk-1775 (50 μg per gland, Cayman Chemical, 21266), and left glands were injected with PBS or DMSO (Thermo Scientific, BP231) diluted in PBS.
For RNA isolation from FACS purified populations, mammary gland cell suspensions were blocked using Mouse BD Fc Block™ (BD Biosciences) for 10 min. Cells were subsequently resuspended on 1×PBS at a density of 10^7 cells/ml and stained with the following antibodies for 30 min on ice: anti-CD24 PE (Stem Cell Technologies, 60099PE.1), anti-CD29 PE-Cy7 (BioLegend, 102222), anti-CD45-APC (BioLegend,105826), Ter119-APC (BD Biosciences, 561033), CD31-ACP (BD Biosciences, 551262). Propidium iodide at a final concentration of 0.5 μg/ml was used for the discrimination of dead cells. Stromal, basal and luminal mammary populations were sorted using a BD FACS Aria II Cell Sorter. […] Total RNA quality was analyzed by agarose gel electrophoresis and quantified using an ND-1000 spectrophotometer (NanoDrop). cDNA was prepared from 500-1000 ng of total RNA using iScript cDNA synthesis kit (Bio-Rad, 1708841). Quantitative RT-qPCR was performed in triplicates using SsoAdvanced Universal SYBR Green Supermix, (Bio-Rad, 1725272). […]

For `COc1cccc2c1C(=O)c1c(O)c3c(c(O)c1C2=O)C[C@@](O)(C(=O)CO)C[C@@H]3O[C@H]1C[C@H](N)[C@H](O)[C@H](C)O1` [doxorubicin], the “milk production as Csn2 expression, RT-qPCR” value (doxorubicin IDI at PD12.5 vs contralateral DMSO, PD17.5 MGs) was “increase”.
`C=CCn1c(=O)c2cnc(Nc3ccc(N4CCN(C)CC4)cc3)nc2n1-c1cccc(C(C)(C)O)n1` [Mk-1775]: for the setting “Mk-1775 IDI at PD16.5 vs contralateral DMSO, LD2 or LD5 MGs”, the “Csn2 expression, RT-qPCR” value is given as “decrease”.
